Assay [1] has as its target PEG-3 (UniProt Q6IN02). Briefly: inhibition of PEG-3 promoter-driven reporter – cell-based, HeLa, luciferase, CREF/GAPDH counter-screen panel, dose response (AID 624167). As to conditions: HeLa PEG-Prom luciferase reporter, overnight, CREF/GAPDH counter-screens, mean of runs. On the technique in general: A counterscreen serves to expose hits that act by an unwanted route or on another target.

The test system of assay [2] is PEG-3. Described as above. The following applies: HeLa PEG-Prom luciferase reporter, overnight, CREF/GAPDH counter-screens. (A reporter such as luciferase makes a cellular process visible.)
The mark [3] stands for this setting: run 1, dose range 1, individual replicate IC50 per panel.
The mark [4] stands for this setting: run 2, dose range 1, individual replicate IC50 per panel.

From PubChem BioAssay AID624167 (Sanford-Burnham Center for Chemical Genomics, 2012) come the findings set out here.

SMILES strings stand for the structures. The source made the active and inactive calls.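 Rule for the calls: active = mean IC50 for reducing PEG3 promoter reporter signal at or below a set limit, with IC50 above the limit in both counter screens; inactive = the rest, including counter screen hits.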

PEG-3 (UniProt Q6IN02), sequence (Q6IN02 whole entry, looked up): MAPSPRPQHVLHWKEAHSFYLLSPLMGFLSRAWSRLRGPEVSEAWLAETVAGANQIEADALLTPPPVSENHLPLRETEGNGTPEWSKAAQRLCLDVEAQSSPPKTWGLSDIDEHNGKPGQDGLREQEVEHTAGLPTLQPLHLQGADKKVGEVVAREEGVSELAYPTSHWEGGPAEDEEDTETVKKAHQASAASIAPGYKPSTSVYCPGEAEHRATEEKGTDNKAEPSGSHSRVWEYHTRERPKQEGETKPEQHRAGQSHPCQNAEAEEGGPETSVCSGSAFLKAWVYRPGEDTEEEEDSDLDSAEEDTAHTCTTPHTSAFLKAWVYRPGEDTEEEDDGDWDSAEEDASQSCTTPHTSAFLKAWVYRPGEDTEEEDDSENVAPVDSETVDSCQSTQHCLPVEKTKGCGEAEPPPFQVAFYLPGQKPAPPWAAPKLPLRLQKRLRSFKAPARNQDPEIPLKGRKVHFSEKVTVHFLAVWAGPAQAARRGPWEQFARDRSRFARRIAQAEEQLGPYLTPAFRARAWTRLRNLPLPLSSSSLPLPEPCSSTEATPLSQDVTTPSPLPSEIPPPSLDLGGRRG

The IC50 is the midpoint of a concentration-inhibition curve. As for `O=S(=O)(c1cccs1)N1CCN(c2ccnc3cc(Cl)ccc23)CC1`, the results for the IC50 in assay [1], in assay [2] (setting [3]) and in assay [2] (setting [4]) were 17.4 µM, 11.7 µM and 23.2 µM, respectively.
As for `O=[N+]([O-])c1cc(Cl)cc(/C=N\Nc2ccccn2)c1O`, the IC50 entry in assay [1] was “inactive”. Besides, the IC50 was 1.39 µM in assay [2] (setting [3]) and more than 100 µM in assay [2] (setting [4]).
On the same counts, the results for `CCOc1cccc2sc(N(CCCN(C)C)C(=O)c3ccc(S(=O)(=O)N(CC)Cc4ccccc4)cc3)nc12` are 15.4 µM, 19.1 µM and 11.8 µM.
The matching figures for `COc1ccc(C)cc1Nc1n[n+](-c2ccccc2)c(-c2ccc(N(C)C)cc2)s1`: “inactive”, 36.3 µM and 65.2 µM.
For `CCN(CC)CCn1c2ccccc2c2cnc(N)c(C#N)c21`, the 50% inhibitory concentration (IC50) is 12.1 µM in assay [1], 11.3 µM in assay [2] (setting [3]) and 12.9 µM in assay [2] (setting [4]).
On the same counts, the results for `O=C(Nc1ccccc1)c1nc[nH]c1C(=O)NCCCCNC(=O)c1[nH]cnc1C(=O)Nc1ccccc1` are 11.3 µM, 17.7 µM and 4.92 µM.
On the same counts, the results for `Cc1ccc(S(=O)(=O)c2nc(-c3ccccc3Cl)oc2N(C)C2CCN(C)CC2)cc1` are “inactive”, 32.7 µM and 20.6 µM.
Turning to `CCC1CCCCN1S(=O)(=O)c1ccc(C(=O)N(CCCN(C)C)c2nc3cc4c(cc3s2)OCO4)cc1` (stereo not given), the IC50 entry in assay [1] was “inactive”. The IC50 in assay [2] (setting [3]) was 21.9 µM; in assay [2] (setting [4]), 49.9 µM.
For the compound `O=C(CCl)Nc1cccc(-c2cnc3ccccc3n2)c1`, the IC50 entry in assay [1] is “inactive”. Further, the IC50 in assay [2] (setting [3]) was more than 100 µM; in assay [2] (setting [4]), 13.2 µM.
For `CCOC(=O)c1cnc2c(cnn2C)c1NCCCN(C)C`, in assay [1], the IC50 result is “inactive”. Moreover, the IC50 in assay [2] (setting [3]) was found to be 18.9 µM; in assay [2] (setting [4]), 28.8 µM.
As for `CN(C)CCNc1ncnc2c1ncn2[C@H]1CN(Cc2ccc(-c3ccccc3)cc2)C[C@@H](CO)O1`, the IC50 result in assay [1] was “inactive”. For the same compound, the IC50 came to 30.7 µM in assay [2] (setting [3]) and 17.4 µM in assay [2] (setting [4]).
On the same counts, the results for `O=C(O)c1ccc(N/N=C/c2ccc(OC(=O)c3ccccc3Cl)cc2)cc1` are “inactive”, 3.06 µM and 78.5 µM.
Regarding `CC(C)(C)c1ccc(OCCCNCc2ccccc2)cc1`, the IC50 entry in assay [1] was “inactive”. In addition, the results for the IC50 in assay [2] (setting [3]) and in assay [2] (setting [4]) were 28.8 µM and 18.3 µM, respectively.
As to `CC1(Cc2ccc(Cl)c(Cl)c2)C(=O)Nc2ccc(S(=O)(=O)NC3CCCCC3)cc21` (stereo not given), the half-maximal inhibitory concentration (IC50) is 17.7 µM in assay [1], 18.1 µM in assay [2] (setting [3]) and 17.2 µM in assay [2] (setting [4]).
Turning to `CN(CCOc1ccc(Cl)cc1)C(=O)c1cc(-c2ccco2)nc2ccccc12`, the half-maximal inhibitory concentration (IC50) was 15.1 µM in assay [1], 15.9 µM in assay [2] (setting [3]) and 14.4 µM in assay [2] (setting [4]).
`CC(C)c1ccc(-c2nc3ccccc3s2)cc1`: the IC50 entry in assay [1] was “inactive”. Also, the concentration for half-maximal inhibition (IC50) amounted to 14 µM in assay [2] (setting [3]) and 40.2 µM in assay [2] (setting [4]).
On the same counts, the results for `c1ccc(C[C@H]2CNCCN2CCCCC2CCCCC2)cc1` are 17.5 µM, 20.1 µM and 14.8 µM.
As for `CCCCCCCCCCCCCCCC(O)C[N+](C)(C)CCO` (stereo not given), the IC50 in assay [1] was 13 µM; in assay [2] (setting [3]) it was 17.7 µM; in assay [2] (setting [4]) it was 8.35 µM.
On the same counts, the results for `COc1ccccc1N(C(=O)CCl)c1cn(C(C)=O)c2ccccc12` are “inactive”, 24.1 µM and 26.5 µM.
The matching figures for `COc1ccc(NC(=O)N(C)[C@H]2C[C@H]3c4[nH]c5ccc(-c6cccc(C)c6)cc5c4CCN3C[C@H]2[C@H](C)O)cc1`: “inactive”, 23.6 µM and 22.7 µM.
The matching figures for `CCOc1cccc2sc(N(CCCN(C)C)C(=O)c3ccc(S(=O)(=O)N(C)Cc4ccccc4)cc3)nc12`: 16.6 µM, 18.6 µM and 14.7 µM.
As to `CC(C)CC(N)c1csc(Nc2ccc(C(=O)N(C)Cc3ccccc3)cn2)n1` (stereo not given), the IC50 result in assay [1] was “inactive”. Moreover, the figures for the IC50 in assay [2] (setting [3]) and in assay [2] (setting [4]) were 14.2 µM and 29 µM, respectively.
In the case of `Cc1nc(N2CCN(S(=O)(=O)c3ccccc3C#N)CC2)c2c(-c3ccccc3)csc2n1`, the IC50 is > 100 µM (inactive) in assay [1], more than 100 µM in assay [2] (setting [3]) and more than 100 µM in assay [2] (setting [4]).
Consider `Cc1ccccc1NC(=O)Nc1nc(C(N)C2CCCCC2)cs1` (stereo not given), for which the IC50 result in assay [1] is “inactive”. For the same compound, the IC50 in assay [2] (setting [3]) came out at 21.1 µM; in assay [2] (setting [4]), 26.5 µM.
On the same counts, the results for `COc1cc(N=Nc2c(O)c3ccccc3[nH]c2=O)c(OC)cc1N=Nc1ccccc1` are > 100 µM (inactive), more than 100 µM and more than 100 µM.
